Blank lines part the entries; values can stand above or below the compound they belong to.
Legend:
[1] = molecular target: Ephrin type-A receptor 5 (Homo sapiens) (UniProt P54756); test: Selectivity interaction (Kinase panel (Z-LYTE Assay)) EUB0001632a EPHA5; settings: at 10 µM
[2] = molecular target: T1, cAMP-dependent protein kinase catalytic subunit alpha (Homo sapiens, UniProt P17612); test: Selectivity interaction (Kinase panel (Z-LYTE Assay)) EUB0001632a PRKACA; settings: at 10 µM
[3] = molecular target: Histone acetyltransferase p300 (Homo sapiens) (UniProt Q09472); test: Selectivity interaction (Human bromodomain panel (DSF assay)) EUB0000233b EP300
[4] = molecular target: Calcium/calmodulin-dependent protein kinase type 1 (Homo sapiens) (UniProt Q14012); test: Selectivity interaction (KinomeScan (DiscoverX)) EUB0000666a CAMK1; settings: at 10 µM
[5] = molecular target: T2, Serine/threonine-protein kinase 3 (Homo sapiens) (UniProt Q13188); test: Selectivity interaction (KinomeScan (DiscoverX)) EUB0000666a STK3; settings: at 10 µM
T2 sequence (whole entry): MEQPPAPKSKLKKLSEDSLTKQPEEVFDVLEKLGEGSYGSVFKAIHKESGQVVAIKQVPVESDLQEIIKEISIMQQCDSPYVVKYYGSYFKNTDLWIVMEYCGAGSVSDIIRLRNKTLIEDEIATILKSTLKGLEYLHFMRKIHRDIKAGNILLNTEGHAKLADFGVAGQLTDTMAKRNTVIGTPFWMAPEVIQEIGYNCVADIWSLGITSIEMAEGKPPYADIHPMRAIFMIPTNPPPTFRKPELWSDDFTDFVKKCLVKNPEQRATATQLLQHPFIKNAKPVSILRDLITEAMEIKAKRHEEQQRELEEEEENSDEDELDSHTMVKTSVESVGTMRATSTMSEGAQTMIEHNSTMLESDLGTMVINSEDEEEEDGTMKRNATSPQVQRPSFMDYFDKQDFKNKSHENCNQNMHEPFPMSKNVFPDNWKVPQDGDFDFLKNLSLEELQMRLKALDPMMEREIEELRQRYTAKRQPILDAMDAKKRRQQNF

[6] = molecular target: Platelet-derived growth factor receptor beta (Homo sapiens, UniProt P09619); test: Selectivity interaction (Upstate Kinase Profiler service (Millipore)) EUB0000056c PDGFRB; settings: at 1 µM
[7] = molecular target: Serine/threonine-protein kinase SIK2 (Homo sapiens) (UniProt Q9H0K1); settings: at 10 µM
[8] = molecular target: T3, Dual specificity mitogen-activated protein kinase kinase 3 (Homo sapiens) (UniProt P46734); test: Selectivity interaction (Kinase panel (Invitrogen)) EUB0000639a MAP2K3; settings: at 200 nM
T3 sequence (whole entry): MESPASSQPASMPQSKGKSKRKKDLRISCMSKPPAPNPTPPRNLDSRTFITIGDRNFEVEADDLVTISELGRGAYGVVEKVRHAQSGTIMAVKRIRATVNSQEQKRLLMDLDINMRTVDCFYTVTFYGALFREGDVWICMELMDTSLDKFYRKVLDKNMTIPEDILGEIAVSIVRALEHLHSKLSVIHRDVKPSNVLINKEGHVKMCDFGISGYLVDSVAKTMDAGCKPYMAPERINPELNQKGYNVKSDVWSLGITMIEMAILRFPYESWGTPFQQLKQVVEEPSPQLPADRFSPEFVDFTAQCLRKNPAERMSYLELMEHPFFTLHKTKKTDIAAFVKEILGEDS

[9] = molecular target: DNA-dependent protein kinase catalytic subunit (Homo sapiens) (UniProt P78527); test: Selectivity interaction (ProQinase) EUB0000171b PRKDC
DNA-dependent protein kinase catalytic subunit (Homo sapiens), sequence (P78527 whole entry): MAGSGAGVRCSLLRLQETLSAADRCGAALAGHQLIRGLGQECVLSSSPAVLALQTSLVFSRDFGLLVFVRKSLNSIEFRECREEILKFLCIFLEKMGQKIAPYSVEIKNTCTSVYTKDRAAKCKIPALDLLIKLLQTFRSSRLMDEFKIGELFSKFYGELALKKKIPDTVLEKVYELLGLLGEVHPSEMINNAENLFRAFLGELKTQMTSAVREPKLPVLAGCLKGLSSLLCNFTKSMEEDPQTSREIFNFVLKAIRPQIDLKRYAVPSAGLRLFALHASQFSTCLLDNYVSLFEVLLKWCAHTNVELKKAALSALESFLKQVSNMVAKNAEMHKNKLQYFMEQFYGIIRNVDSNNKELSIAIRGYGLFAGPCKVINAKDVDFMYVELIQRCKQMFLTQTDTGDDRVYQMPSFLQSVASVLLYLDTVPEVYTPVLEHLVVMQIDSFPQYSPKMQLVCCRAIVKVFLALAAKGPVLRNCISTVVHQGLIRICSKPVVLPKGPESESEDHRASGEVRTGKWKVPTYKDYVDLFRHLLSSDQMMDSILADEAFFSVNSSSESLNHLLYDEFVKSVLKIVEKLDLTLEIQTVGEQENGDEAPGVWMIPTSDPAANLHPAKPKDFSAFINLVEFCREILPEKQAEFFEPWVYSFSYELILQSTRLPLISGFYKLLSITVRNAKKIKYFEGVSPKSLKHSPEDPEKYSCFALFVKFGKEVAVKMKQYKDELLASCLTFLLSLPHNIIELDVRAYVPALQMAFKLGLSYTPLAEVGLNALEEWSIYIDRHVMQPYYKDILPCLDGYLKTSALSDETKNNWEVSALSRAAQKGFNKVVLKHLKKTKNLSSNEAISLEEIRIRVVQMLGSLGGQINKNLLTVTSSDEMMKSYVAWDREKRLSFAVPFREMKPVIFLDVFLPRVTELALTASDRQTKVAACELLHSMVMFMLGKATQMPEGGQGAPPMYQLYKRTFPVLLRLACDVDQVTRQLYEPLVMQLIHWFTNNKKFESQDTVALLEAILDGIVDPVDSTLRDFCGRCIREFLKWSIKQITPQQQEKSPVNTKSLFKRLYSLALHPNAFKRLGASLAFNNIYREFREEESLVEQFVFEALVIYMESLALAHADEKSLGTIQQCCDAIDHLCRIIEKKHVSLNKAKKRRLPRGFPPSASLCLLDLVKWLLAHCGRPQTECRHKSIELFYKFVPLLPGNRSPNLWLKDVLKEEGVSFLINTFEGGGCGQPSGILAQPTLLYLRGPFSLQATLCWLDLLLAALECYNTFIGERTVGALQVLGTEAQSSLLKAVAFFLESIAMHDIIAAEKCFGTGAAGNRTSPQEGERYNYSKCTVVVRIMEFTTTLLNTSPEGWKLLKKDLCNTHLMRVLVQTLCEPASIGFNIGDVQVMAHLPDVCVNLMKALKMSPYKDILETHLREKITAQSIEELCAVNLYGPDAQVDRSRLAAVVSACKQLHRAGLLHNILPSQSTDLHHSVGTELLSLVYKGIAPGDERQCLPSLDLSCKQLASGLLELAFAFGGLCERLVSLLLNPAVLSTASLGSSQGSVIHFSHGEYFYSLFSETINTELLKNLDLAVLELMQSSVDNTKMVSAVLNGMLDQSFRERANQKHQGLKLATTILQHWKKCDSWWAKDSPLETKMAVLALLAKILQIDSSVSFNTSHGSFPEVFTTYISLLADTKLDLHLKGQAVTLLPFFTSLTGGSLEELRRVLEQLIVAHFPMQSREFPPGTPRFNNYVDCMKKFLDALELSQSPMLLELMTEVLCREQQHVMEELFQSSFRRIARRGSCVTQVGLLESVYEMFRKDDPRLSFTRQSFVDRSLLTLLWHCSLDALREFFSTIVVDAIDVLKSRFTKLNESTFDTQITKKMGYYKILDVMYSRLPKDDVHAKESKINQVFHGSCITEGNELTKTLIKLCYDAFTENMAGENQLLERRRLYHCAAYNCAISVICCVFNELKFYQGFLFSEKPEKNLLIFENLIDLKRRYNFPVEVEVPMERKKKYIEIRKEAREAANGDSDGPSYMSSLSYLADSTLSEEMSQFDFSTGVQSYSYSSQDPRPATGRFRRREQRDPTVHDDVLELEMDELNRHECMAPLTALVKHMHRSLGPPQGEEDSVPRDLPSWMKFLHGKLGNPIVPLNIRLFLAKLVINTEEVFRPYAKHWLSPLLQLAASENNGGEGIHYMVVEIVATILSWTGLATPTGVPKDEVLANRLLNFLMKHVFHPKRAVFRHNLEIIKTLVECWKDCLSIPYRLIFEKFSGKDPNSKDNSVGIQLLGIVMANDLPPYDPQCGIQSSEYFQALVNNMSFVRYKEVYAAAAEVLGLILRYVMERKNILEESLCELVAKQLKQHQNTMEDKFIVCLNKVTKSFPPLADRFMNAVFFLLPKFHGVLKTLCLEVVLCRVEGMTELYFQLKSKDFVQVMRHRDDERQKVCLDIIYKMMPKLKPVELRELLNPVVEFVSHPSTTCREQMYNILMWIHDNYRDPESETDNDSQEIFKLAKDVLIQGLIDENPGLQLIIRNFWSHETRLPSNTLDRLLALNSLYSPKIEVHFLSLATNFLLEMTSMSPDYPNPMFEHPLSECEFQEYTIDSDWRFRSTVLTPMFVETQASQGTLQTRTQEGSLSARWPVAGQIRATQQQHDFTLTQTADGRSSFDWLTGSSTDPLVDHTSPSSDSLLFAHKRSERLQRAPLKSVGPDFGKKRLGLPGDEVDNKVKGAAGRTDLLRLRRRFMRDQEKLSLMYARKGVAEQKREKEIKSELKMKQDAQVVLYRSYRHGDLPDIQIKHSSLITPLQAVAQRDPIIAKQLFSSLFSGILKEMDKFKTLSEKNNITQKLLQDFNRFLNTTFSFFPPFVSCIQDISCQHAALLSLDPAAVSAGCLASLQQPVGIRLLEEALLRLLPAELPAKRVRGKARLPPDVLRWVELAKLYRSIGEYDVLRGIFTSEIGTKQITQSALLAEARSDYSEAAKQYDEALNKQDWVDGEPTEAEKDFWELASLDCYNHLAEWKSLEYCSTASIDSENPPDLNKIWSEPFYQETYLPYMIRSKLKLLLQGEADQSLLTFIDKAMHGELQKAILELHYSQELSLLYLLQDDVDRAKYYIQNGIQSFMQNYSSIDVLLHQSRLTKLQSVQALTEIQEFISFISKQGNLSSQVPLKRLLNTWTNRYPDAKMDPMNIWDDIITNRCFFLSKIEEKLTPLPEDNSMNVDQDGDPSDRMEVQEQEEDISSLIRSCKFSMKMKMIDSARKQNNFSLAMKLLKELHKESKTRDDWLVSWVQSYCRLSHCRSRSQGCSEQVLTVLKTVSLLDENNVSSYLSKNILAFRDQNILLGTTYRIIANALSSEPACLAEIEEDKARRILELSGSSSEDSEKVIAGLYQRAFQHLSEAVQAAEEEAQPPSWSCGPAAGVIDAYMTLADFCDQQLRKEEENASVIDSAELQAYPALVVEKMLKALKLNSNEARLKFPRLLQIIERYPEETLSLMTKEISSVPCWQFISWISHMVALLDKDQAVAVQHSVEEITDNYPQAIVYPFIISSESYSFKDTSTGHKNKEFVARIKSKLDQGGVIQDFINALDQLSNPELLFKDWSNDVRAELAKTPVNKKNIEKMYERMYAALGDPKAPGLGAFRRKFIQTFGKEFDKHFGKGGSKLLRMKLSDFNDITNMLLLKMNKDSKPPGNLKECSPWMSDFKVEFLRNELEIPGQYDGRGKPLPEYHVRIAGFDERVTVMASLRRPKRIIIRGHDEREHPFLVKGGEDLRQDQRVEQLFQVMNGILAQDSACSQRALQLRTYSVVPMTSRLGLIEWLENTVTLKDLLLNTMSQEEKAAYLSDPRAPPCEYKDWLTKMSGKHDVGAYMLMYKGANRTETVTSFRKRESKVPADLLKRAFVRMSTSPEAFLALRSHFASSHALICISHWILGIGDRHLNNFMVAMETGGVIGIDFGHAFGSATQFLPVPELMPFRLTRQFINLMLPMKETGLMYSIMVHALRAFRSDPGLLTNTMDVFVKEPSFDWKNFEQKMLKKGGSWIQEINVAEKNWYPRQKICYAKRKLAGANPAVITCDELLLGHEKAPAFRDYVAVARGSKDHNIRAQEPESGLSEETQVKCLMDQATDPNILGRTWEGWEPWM

[10] = molecular target: Phosphatidylinositol 3-kinase catalytic subunit type 3 (Homo sapiens, UniProt Q8NEB9); test: Selectivity interaction (ProQinase) EUB0000171b PIK3C3
Phosphatidylinositol 3-kinase catalytic subunit type 3, sequence (Q8NEB9 whole entry): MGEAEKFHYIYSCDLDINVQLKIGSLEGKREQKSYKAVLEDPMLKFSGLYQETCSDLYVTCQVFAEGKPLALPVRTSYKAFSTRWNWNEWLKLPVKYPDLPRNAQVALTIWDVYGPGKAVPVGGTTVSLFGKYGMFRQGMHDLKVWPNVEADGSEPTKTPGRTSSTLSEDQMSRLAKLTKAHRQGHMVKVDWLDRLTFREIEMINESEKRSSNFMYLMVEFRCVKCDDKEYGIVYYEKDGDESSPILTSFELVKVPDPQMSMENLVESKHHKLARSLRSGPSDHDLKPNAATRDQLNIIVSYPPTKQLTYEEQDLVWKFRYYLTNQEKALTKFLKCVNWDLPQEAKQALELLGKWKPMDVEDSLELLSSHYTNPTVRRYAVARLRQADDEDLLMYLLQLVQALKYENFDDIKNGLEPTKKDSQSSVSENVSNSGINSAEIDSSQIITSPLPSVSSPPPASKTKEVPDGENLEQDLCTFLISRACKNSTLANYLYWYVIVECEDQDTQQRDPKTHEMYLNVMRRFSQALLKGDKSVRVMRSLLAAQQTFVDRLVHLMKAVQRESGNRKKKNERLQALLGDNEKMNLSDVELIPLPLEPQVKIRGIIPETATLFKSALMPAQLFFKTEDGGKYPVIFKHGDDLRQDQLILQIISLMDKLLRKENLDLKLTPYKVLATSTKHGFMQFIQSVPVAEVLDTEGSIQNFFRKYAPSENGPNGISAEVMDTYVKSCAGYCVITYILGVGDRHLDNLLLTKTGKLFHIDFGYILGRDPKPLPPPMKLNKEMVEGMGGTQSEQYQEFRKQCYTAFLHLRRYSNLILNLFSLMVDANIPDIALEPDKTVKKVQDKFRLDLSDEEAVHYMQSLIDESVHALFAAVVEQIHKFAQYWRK

[11] = molecular target: T1, cAMP-dependent protein kinase catalytic subunit alpha; test: Selectivity interaction (KinomeScan (DiscoverX)) EUB0000695a PRKACA; settings: at 100 nM
[12] = molecular target: T4, Serine/threonine-protein kinase VRK1 (Homo sapiens) (UniProt Q99986); test: Selectivity interaction (Kinase panel (DSF assay)) EUB0001559a VRK1
T4 sequence (whole entry): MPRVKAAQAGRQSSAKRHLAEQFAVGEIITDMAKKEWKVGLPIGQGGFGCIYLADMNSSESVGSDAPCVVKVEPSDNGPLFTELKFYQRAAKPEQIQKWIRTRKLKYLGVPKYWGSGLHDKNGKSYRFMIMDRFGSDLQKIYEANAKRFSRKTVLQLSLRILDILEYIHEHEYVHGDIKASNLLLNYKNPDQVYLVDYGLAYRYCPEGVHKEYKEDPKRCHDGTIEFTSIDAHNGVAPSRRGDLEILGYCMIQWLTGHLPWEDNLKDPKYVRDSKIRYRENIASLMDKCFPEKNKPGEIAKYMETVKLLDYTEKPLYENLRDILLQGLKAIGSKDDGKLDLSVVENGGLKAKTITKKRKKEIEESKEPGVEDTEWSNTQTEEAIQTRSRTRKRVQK

[13] = molecular target: Mitogen-activated protein kinase 3 (Homo sapiens, UniProt P27361); test: Selectivity interaction (KinomeScan (DiscoverX)) EUB0000655a MAPK3; settings: at 10 µM
[14] = molecular target: T5, Cyclin-dependent kinase-like 2 (Homo sapiens) (UniProt Q92772); test: Selectivity interaction (KinomeScan (DiscoverX)) EUB0000045b CDKL2
T5 sequence (whole entry): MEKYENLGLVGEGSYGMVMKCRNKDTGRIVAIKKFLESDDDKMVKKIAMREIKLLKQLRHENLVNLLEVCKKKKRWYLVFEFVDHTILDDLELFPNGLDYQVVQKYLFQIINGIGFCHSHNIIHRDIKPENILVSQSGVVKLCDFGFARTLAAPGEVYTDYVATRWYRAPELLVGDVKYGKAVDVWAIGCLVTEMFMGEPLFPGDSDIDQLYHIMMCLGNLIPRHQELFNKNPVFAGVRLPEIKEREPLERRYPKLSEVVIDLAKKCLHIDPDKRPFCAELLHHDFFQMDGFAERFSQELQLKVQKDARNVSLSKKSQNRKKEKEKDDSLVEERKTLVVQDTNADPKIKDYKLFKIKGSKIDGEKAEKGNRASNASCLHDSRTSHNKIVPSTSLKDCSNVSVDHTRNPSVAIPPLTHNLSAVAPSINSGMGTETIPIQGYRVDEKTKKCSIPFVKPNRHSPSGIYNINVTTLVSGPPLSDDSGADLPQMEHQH

[15] = molecular target: Dual specificity protein kinase CLK4 (Homo sapiens, UniProt Q9HAZ1); test: Selectivity interaction (KinomeScan (DiscoverX)) EUB0000045b CLK4
[16] = molecular target: Mitogen-activated protein kinase kinase kinase kinase 4 (Homo sapiens, UniProt O95819); test: Selectivity interaction (KinomeScan (DiscoverX)) EUB0001079a MAP4K4; settings: at 1 µM
[17] = molecular target: Casein kinase I isoform gamma-3 (Homo sapiens) (UniProt Q9Y6M4); test: Selectivity interaction (KinomeScan (DiscoverX)) EUB0000229b CSNK1G3; settings: at 10 µM
[18] = molecular target: Serine/threonine-protein kinase RIO2 (Homo sapiens) (UniProt Q9BVS4); settings: at 10 µM

Compound: O=C(NOC[C@H](O)CO)c1ccc(F)c(F)c1Nc1ccc(I)cc1F
% of control [4]: 98%
% of control [5]: 90%

Compound: Cc1cc(F)c(C(=O)Nc2cccc(-c3nncn3C(C)C)n2)cc1-n1cnc(C2CC2)c1
% of control [11]: 99%

Compound: CN(C)CCOc1ccc(-c2nc(-c3ccncc3)c(-c3ccc4c(c3)CC/C4=N\O)[nH]2)cc1
% of control [13]: 100%

Compound: C=CC(=O)Nc1cc(-n2c(=O)ccc3cnc4ccc(-c5ccc(NS(C)(=O)=O)cc5)cc4c32)ccc1C
% of control ([14]; at 1 µM): 93%
% of control ([14]; at 10 µM): 93%
% of control ([15]; at 1 µM): 99%
% of control ([15]; at 10 µM): 85%

Compound: Nc1cnc(N2CCc3cc(S(=O)(=O)Nc4c(F)cc(Cl)cc4F)cc(N4CCCC4=O)c32)nc1 [TP-020n]
% of control [16]: 61%

Compound: COc1cc(N(C)c2ccnc3ccc(C(F)(F)F)cc23)cc(OC)c1OC
% binding [17]: 86%

Compound: Cc1cc([C@@H](C)Nc2ccccc2C(=O)O)c2nc(N3CCOCC3)cc(=O)n2c1 [AZD-6482]
% of control [18]: 54%

The next lines start with the values.

% of control [1]: 6.77%
% of control [2]: 1.33%
Compound: Cn1cc(-n2cnc3c(NCc4nc5cc(Cl)c(Cl)cc5[nH]4)nc(N4CCOCC4)nc32)cn1

dTM [3]: < 2 K
Compound: CN(C)CCCOc1ccc(-c2cc(NCCCn3cccn3)nc(S(C)(=O)=O)n2)cc1

% of inhibition [6]: -4%
Compound: Cc1ccc(-c2ccc3c(ccc4sc5c(c43)NC[C@@H](C)NC5=O)n2)cn1

% of control [7]: 100%
Compound: CCN(CC)CCCCNc1ncc2cc(-c3cc(OC)cc(OC)c3)c(NC(=O)NC(C)(C)C)nc2n1

% of inhibition [8]: 0.853%
Compound: CC[C@@H]1[C@H](F)C(=O)N[C@@H]1COc1nccc2cc(C(N)=O)c(OC)cc12 [ZIMLOVISERTIB]

% of control ([9]; at 1 µM): 92%
% of control ([9]; at 5 µM): 103%
% of control ([10]; at 1 µM): 108%
% of control ([10]; at 5 µM): 103%
Compound: C=CC(=O)Nc1cccc(C(=O)Nc2ccc(Nc3cc(-c4[nH]c(SC)nc4C)ccn3)cc2)c1

dTM [12]: 0.2 K
Compound: CN(C(=O)c1cnn2cccnc12)c1cc2c(cc1N1CCOCC1)C(=O)N(C[C@@H](F)C(C)(C)O)C2
